Test results published in patent US11667616B2, “Oral GSNOR inhibitor and pharmaceutical use thereof” (NANJING MEDICAL UNIVERSITY, priority 2020, dated 2023).
Each block holds one compound with its values, some of them ahead of it.

What was measured:
GSNOR = target: T1, GSNOR (Homo sapiens, UniProt P11766); assay: GSNOR activity in lysate of treated HUVECs (NADH consumption at 340 nm); assay type: cell-based; details: for activities in in-vitro studies: relative to N6022
T1 construct: the cell lysate supernatants were treated with a substrate GSNO and a coenzyme NADH; endogenous in cells; host or cells: HUVEC (human umbilical vein endothelial cells)
T1 sequence (P11766 whole entry): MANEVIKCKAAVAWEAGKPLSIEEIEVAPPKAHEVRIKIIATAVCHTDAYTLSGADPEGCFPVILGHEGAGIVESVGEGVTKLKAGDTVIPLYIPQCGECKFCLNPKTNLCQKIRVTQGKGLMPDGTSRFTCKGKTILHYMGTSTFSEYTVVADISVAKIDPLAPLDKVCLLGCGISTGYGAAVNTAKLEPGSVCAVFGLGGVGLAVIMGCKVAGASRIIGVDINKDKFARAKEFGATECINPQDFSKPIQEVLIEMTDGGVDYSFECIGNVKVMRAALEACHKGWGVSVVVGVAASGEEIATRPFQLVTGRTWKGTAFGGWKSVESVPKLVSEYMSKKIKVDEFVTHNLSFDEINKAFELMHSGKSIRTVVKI
Excerpt: GSNOR plays a crucial regulatory role in asthma and cystic fibrosis.

HUVECs [1] = assay: Endothelial cell tube formation under high glucose; assay type: cell-based, Human; details: high glucose 30 mM, 10 nM, 24 h
Excerpt: It is known that in the diabetic vascular complications, decreased angiogenesis and increased vascular endothelial permeability are among the risk factors causing local edema, ischemia followed by ulcer and amputation.
(§1) FIG. 3A, FIG. 3B and FIG. 3C show study of the in-vitro activity of the subject compound 1 against diabetic vascular complications.

[2] = test system: human aortic smooth muscle cells (HASMCs); assay: Contractile/synthetic marker expression in angiotensin II-treated smooth muscle cells; assay type: cell-based; details: angiotensin II 1 μM, 10 nM, 24 hours
Excerpt: Then, cellular RNA were extracted to detect contractile/synthetic markers of smooth muscle cells.

[3] = Pharmacokinetic study, plasma concentration by LC-MS/MS; assay type: in vivo, ICR mice; details: ICR, mouse; for half-life: read-out: drug half-life period (converted)
Excerpt: Then, the plasma concentration was detected by LC-MS/MS at hour 0.083, 0.25, 0.5, 1, 2, 4, 8 and 24 respectively (FIG. 5).

HUVECs [4] = assay: Endothelial cell sphere sprouting under high glucose; assay type: cell-based, Human; details: high glucose 30 mM, 10 nM, 24 h
Excerpt: as §1

HUVECs [5] = assay: Endothelial cell permeability under high glucose; assay type: cell-based, Human; details: high glucose 30 mM, 10 nM, 24 h
Excerpt: as §1

[6] = test system: diabetic C57BL/6J mice with lateral limb ischemia; assay: Streptozotocin diabetes + lateral limb ischemia model; assay type: in vivo
Protocol: To generate diabetes model, mice at week 8 were intraperitoneally injected with streptozotocin (60 mg/kg/day) for consecutive 5 days, then the modeling was identified as a success if the blood glucose was measured to be greater than 16.6 mmol/L at week 10. […] The gastrocnemius muscles of the ischemic lateral limbs of the mice were isolated for frozen section, and immunofluorescence (platelet-endothelial cell adhesion molecule, CD31) was used to detect the angiogenesis (FIG. 6B); and the semimembranosus muscles were isolated for frozen section, and immunofluorescence (α-smooth muscle actin, α-SMA) was used to detect the arteriogenesis (FIG. 6B).

[7] = test system: C57BL/6J mice with β-aminopropionitrile-induced aortic aneurysm/dissection; assay: β-aminopropionitrile-induced aortic aneurysm/dissection model; assay type: in vivo
[8] = gavage 6 mg/kg/day vs N6022 iv 1 mg/kg/day, N6022-1 gavage 5.6 mg/kg/day, N6022-2 gavage 5.3 mg/kg/day
[9] = gavage 6 mg/kg/day, β-aminopropionitrile drinking water 28 days

activities in in-vitro studies (GSNOR): significantly reduced
SMILES: CCOC(=O)CCc1ccc(-c2ccc(-n3ccnc3)cc2)n1-c1ccc(C(N)=O)cc1C [N6022-2]

activities in in-vitro studies (GSNOR): significantly reduced
SMILES: Cc1cc(C(N)=O)ccc1-n1c(CCC(N)=O)ccc1-c1ccc(-n2ccnc2)cc1 [N6022-1]

half-life [3]: 0.76 ± 0.15 h
SMILES: Cc1cc(C(N)=O)ccc1-n1c(CCC(=O)O)ccc1-c1ccc(-n2ccnc2)cc1 [N6022, 3-(5-(4-(1H-imidazol-1-yl)phenyl)-1-(4-carbamoyl-2-methylphenyl)-1H-pyrrol-2-yl) propanoic acid, reference compound]
angiogenesis ability of endothelial cells (tube formation) (HUVECs [1]): obviously improve
decrease in the expression of the contractile markers (actin α2, calmodulin 1, transgelin) due to angiotensin II [2]: obviously inhibit
increase in the expression of the synthetic markers (osteopontin, Kruppel-like factor 4, Kruppel-like factor 5) due to angiotensin II [2]: obviously inhibit

SMILES: Cc1cc(C(N)=O)ccc1-n1c(CCC(=O)N2CCSC2=O)ccc1-c1ccc(-n2ccnc2)cc1 [subject compound 1, s4-(2-(4-(1H-imidazol-1-yl)phenyl)-5-(3-oxo-3-(2-oxothiazolidin-3-yl)propyl)-1H-pyrrol-1-yl)-3-methylbenzamide]
inhibitory effect on the GSNOR activity (GSNOR; 10 nM, 24 hours, HUVECs, lysate + GSNO + NADH): equivalent to N6022
activities in in-vitro studies (GSNOR): good activity in vitro
angiogenesis ability of endothelial cells (tube formation) (HUVECs [1]): obviously improve
sprouting ability of the endothelial cells (HUVECs [4]): improve sprouting ability
permeability of the endothelial cells (HUVECs [5]): modify the permeability
decrease in the expression of the contractile markers (actin α2, calmodulin 1, transgelin) due to angiotensin II [2]: obviously inhibit
increase in the expression of the synthetic markers (osteopontin, Kruppel-like factor 4, Kruppel-like factor 5) due to angiotensin II [2]: obviously inhibit
bioavailability ([3]; po): 60.1 ± 7.91%
half-life [3]: 1.62 ± 0.81 h
angiogenesis of the ischemic lateral limbs of the diabetic mice (CD31, α-SMA) ([6]; gavage 6 mg/kg/day after operation): obviously promote
effect on diabetic limb ischemia compared with controls [6, 8]: equivalent effect to the group intravenously injected with N6022
blood flow recovery of the lateral limbs (laser speckle imaging) ([6]; gavage 6 mg/kg/day, day 0, 7 and 14): restore blood flow
effect on aortic aneurysm/dissection compared with controls [7, 8]: equivalent effect to the group intravenously injected with N6022
expansion of the aortic diameter [7, 9]: inhibited
mortality rate of the mice [7, 9]: inhibited
